The values that follow come from PubChem BioAssay AID212 (DTP/NCI, 2004).

Structures are written as SMILES. Where “and” joins values, the source holds several entries; their conditions need not be identical. Equal entries are not always repeated. Inconclusive results are not listed.

The subject of this assay is BDF1 mice, colon carcinoma 38 sc, T/C %. Description: NCI In Vivo Anticancer Drug Screen. Data for tumor model Colon Carcinoma 38 (subcutaneous) in B6D2F1 (BDF1) mice. In outline:
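T/C readout: treated group (T) measurement over vehicle control group (C) measurement. Endpoint is survival or tumor size in mice bearing a transplanted tumor.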

Setting [1] is: endpoint: median tumor weight (est.), dose: 6.25 mg/kg/injection, schedule: Q07DX002 (ip), vehicle: Klucel (hydroxypropylcellulose) (HPC), higher = larger tumour.
Where [2] appears, read: endpoint: median tumor weight (est.), dose: 12.5 mg/kg/injection, schedule: Q07DX002 (ip), vehicle: Klucel (hydroxypropylcellulose) (HPC), higher = larger tumour.
The mark [3] stands for this setting: endpoint: median tumor weight (est.), dose: 6.25 mg/kg/injection, schedule: Q07DX002 (ip), vehicle: saline with Tween-80, higher = larger tumour.
The mark [4] stands for this setting: endpoint: median tumor weight (est.), dose: 12.5 mg/kg/injection, schedule: Q07DX002 (ip), vehicle: saline with Tween-80, higher = larger tumour.
Where [5] appears, read: endpoint: median tumor weight (est.), dose: 50.0 mg/kg/injection, schedule: Q07DX002 (ip), vehicle: saline with Tween-80, higher = larger tumour.
The mark [6] stands for this setting: endpoint: median tumor weight (est.), dose: 200.0 mg/kg/injection, schedule: Q07DX002 (ip), vehicle: saline with Tween-80, higher = larger tumour.
Setting [7] is: endpoint: median tumor weight (est.), dose: 105.0 mg/kg/injection, schedule: Q07DX002 (ip), vehicle: water, higher = larger tumour.
[8] abbreviates: endpoint: median tumor weight (est.), dose: 100.0 mg/kg/injection, schedule: Q07DX002 (ip), vehicle: distilled water + Tween-80, higher = larger tumour.

`C[C@H]1C/C=C/[C@H]2[C@@H]3O[C@]3(C)[C@@H](C)[C@H]3[C@H](Cc4ccccc4)NC(=O)[C@]32OC(=O)O/C=C/[C@@](C)(O)C1=O`: the T/C is 79 % of control under setting [1] and 88 % of control under setting [2].
Regarding `COc1ccc([I+]c2cccc(Cl)c2)cc1Cl`, the T/C (endpoint: median tumor weight (est.), dose: 6.25 mg/kg/injection, schedule: Q07DX003 (ip), vehicle: saline with Tween-80, higher = larger tumour) was 54 % of control; the T/C (endpoint: median tumor weight (est.), dose: 12.5 mg/kg/injection, schedule: Q07DX003 (ip), vehicle: saline with Tween-80, higher = larger tumour) was 78 % of control; the T/C (endpoint: median tumor weight (est.), dose: 25.0 mg/kg/injection, schedule: Q07DX003 (ip), vehicle: saline with Tween-80, higher = larger tumour) was 100 % of control; the T/C (endpoint: median tumor weight (est.), dose: 50.0 mg/kg/injection, schedule: Q07DX003 (ip), vehicle: saline with Tween-80, higher = larger tumour) is 111 % of control; the T/C (endpoint: median tumor weight (est.), dose: 100.0 mg/kg/injection, schedule: Q07DX003 (ip), vehicle: saline with Tween-80, higher = larger tumour) was 105 % of control; the T/C (endpoint: median tumor weight (est.), dose: 200.0 mg/kg/injection, schedule: Q07DX003 (ip), vehicle: saline with Tween-80, higher = larger tumour) was 72 % of control.
As for `Cc1nn(CCO)c(C)c1N=[N+]([O-])c1c(C)nn(CCO)c1C`, the T/C is, setting by setting: under setting [1], 116 % of control; under setting [3], 102 % of control; under setting [2], 86 % of control; under setting [4], 98 % of control; (endpoint: median tumor weight (est.), dose: 25.0 mg/kg/injection, schedule: Q07DX002 (ip), vehicle: Klucel (hydroxypropylcellulose) (HPC), higher = larger tumour) 108 % of control and 91 % of control; (endpoint: median tumor weight (est.), dose: 50.0 mg/kg/injection, schedule: Q07DX002 (ip), vehicle: Klucel (hydroxypropylcellulose) (HPC), higher = larger tumour) 100 % of control and 104 % of control. Besides, the T/C runs as follows: under setting [5], 86 % of control; (endpoint: median tumor weight (est.), dose: 200.0 mg/kg/injection, schedule: Q07DX002 (ip), vehicle: Klucel (hydroxypropylcellulose) (HPC), higher = larger tumour) 24 % of control; under setting [6], 79 % of control.
Consider `Cc1cc2cc3cc(C)c(N)cc3nc2cc1N`, for which the T/C under setting [3] is 95 % of control; the T/C under setting [4] was 109 % of control; the T/C under setting [5] is 54 % of control; the T/C (endpoint: median tumor weight (est.), dose: 100.0 mg/kg/injection, schedule: Q07DX002 (ip), vehicle: saline with Tween-80, higher = larger tumour) was 89 % of control.
As for `CC1OC(OC2CC(O)(C(=O)CO)Cc3c(O)c4c(c(O)c32)C(=O)c2ccccc2C4=O)CC(N)C1O` (configuration not stated), the T/C (endpoint: median survival time, dose: 1.2 mg/kg/injection, schedule: Q07DX003 (iv), vehicle: saline, higher = longer survival) was 108 % of control; the T/C (endpoint: median survival time, dose: 1.9 mg/kg/injection, schedule: Q07DX003 (iv), vehicle: saline, higher = longer survival) is 111 % of control; the T/C (endpoint: median tumor weight (est.), dose: 0.12 mg/kg/injection, schedule: Q07DX002 (ip), vehicle: water, higher = larger tumour) was 120 % of control; the T/C (endpoint: median tumor weight (est.), dose: 0.25 mg/kg/injection, schedule: Q07DX002 (ip), vehicle: saline, higher = larger tumour) is 113 % of control; the T/C (endpoint: median tumor weight (est.), dose: 0.25 mg/kg/injection, schedule: Q07DX002 (ip), vehicle: water, higher = larger tumour) was 90 % of control; the T/C (endpoint: median tumor weight (est.), dose: 0.5 mg/kg/injection, schedule: Q07DX002 (ip), vehicle: saline, higher = larger tumour) was 104 % of control. Moreover, the T/C (endpoint: median tumor weight (est.), dose: 0.5 mg/kg/injection, schedule: Q07DX002 (ip), vehicle: water, higher = larger tumour) was 78 % of control; the T/C (endpoint: median tumor weight (est.), dose: 1.0 mg/kg/injection, schedule: Q07DX002 (ip), vehicle: saline, higher = larger tumour) is 69 % of control; the T/C (endpoint: median tumor weight (est.), dose: 1.0 mg/kg/injection, schedule: Q07DX002 (ip), vehicle: water, higher = larger tumour) is 23 % of control; the T/C (endpoint: median tumor weight (est.), dose: 2.0 mg/kg/injection, schedule: Q07DX002 (ip), vehicle: saline, higher = larger tumour) was 72 % of control.
On to `CC[C@H](CC[C@@H](C)C1CC[C@H]2[C@@H]3CC=C4C[C@@H](OP(=O)(N5CC5)N5CC5)CC[C@]4(C)[C@H]3CC[C@]12C)C(C)C` (some centres not stated), for which the T/C under setting [5] was 95 % of control; the T/C under setting [6] is 79 % of control; the T/C (endpoint: median tumor weight (est.), dose: 400.0 mg/kg/injection, schedule: Q07DX002 (ip), vehicle: saline with Tween-80, higher = larger tumour) was 92 % of control.
For the molecule `COc1cc(NCc2ccc3nc(N)nc(N)c3c2C)cc(OC)c1OC`, the T/C runs as follows: (endpoint: median survival time, dose: 5.2 mg/kg/injection, schedule: Q04HX021 (ip), vehicle: sodium bicarbonate, higher = longer survival) 183 % of control; (endpoint: median survival time, dose: 5.9 mg/kg/injection, schedule: Q06HX014 (ip), vehicle: sodium bicarbonate, higher = longer survival) 120 % of control; (endpoint: median survival time, dose: 8.4 mg/kg/injection, schedule: Q04HX021 (ip), vehicle: sodium bicarbonate, higher = longer survival) 194 % of control; (endpoint: median survival time, dose: 8.8 mg/kg/injection, schedule: Q06HX012 (oral), vehicle: sodium bicarbonate, higher = longer survival) 116 % of control; (endpoint: median survival time, dose: 8.8 mg/kg/injection, schedule: Q06HX014 (ip), vehicle: sodium bicarbonate, higher = longer survival) 175 % of control; (endpoint: median survival time, dose: 20.0 mg/kg/injection, schedule: Q06HX012 (oral), vehicle: sodium bicarbonate, higher = longer survival) 177 % of control. In addition, the T/C (endpoint: median survival time, dose: 67.0 mg/kg/injection, schedule: Q07DX002 (ip), vehicle: sodium bicarbonate, higher = longer survival) was 157 % of control; the T/C (endpoint: median tumor weight (est.), dose: 1.88 mg/kg/injection, schedule: Q07DX002 (ip), vehicle: sodium bicarbonate, higher = larger tumour) was 152 % of control; the T/C (endpoint: median tumor weight (est.), dose: 12.5 mg/kg/injection, schedule: Q07DX002 (ip), vehicle: water, higher = larger tumour) is 121 % of control; the T/C (endpoint: median tumor weight (est.), dose: 25.0 mg/kg/injection, schedule: Q07DX002 (ip), vehicle: water, higher = larger tumour) was 109 % of control; the T/C (endpoint: median tumor weight (est.), dose: 50.0 mg/kg/injection, schedule: Q07DX002 (ip), vehicle: water, higher = larger tumour) is 109 % of control; the T/C (endpoint: median tumor weight (est.), dose: 53.0 mg/kg/injection, schedule: Q07DX002 (ip), vehicle: water, higher = larger tumour) was 85 % of control. Moreover, the T/C is 90 % of control (endpoint: median tumor weight (est.), dose: 66.0 mg/kg/injection, schedule: Q07DX002 (ip), vehicle: water, higher = larger tumour); 120 % of control (endpoint: median tumor weight (est.), dose: 70.0 mg/kg/injection, schedule: Q07DX002 (ip), vehicle: water, higher = larger tumour); 82 % of control (endpoint: median tumor weight (est.), dose: 80.0 mg/kg/injection, schedule: Q07DX002 (ip), vehicle: water, higher = larger tumour); 87 % of control (endpoint: median tumor weight (est.), dose: 99.0 mg/kg/injection, schedule: Q07DX002 (ip), vehicle: water, higher = larger tumour); 217 % of control (endpoint: median tumor weight (est.), dose: 100.0 mg/kg/injection, schedule: Q07DX002 (ip), vehicle: water, higher = larger tumour); 82 % of control under setting [7]. For the same molecule, the T/C reads like this: (endpoint: median tumor weight (est.), dose: 120.0 mg/kg/injection, schedule: Q07DX002 (ip), vehicle: sodium bicarbonate, higher = larger tumour) 4 % of control; (endpoint: median tumor weight (est.), dose: 120.0 mg/kg/injection, schedule: Q07DX002 (ip), vehicle: water, higher = larger tumour) 83 % of control.
On to `COc1ccc2c(c1)CCn1c(C)c(COC(=O)NC(C)C)c(COC(=O)NC(C)C)c1-2`, for which the T/C (endpoint: median tumor weight (est.), dose: 6.25 mg/kg/injection, schedule: Q07DX002 (ip), vehicle: distilled water + Tween-80, higher = larger tumour) was 76 % of control; the T/C (endpoint: median tumor weight (est.), dose: 12.5 mg/kg/injection, schedule: Q07DX002 (ip), vehicle: distilled water + Tween-80, higher = larger tumour) was 102 % of control; the T/C (endpoint: median tumor weight (est.), dose: 25.0 mg/kg/injection, schedule: Q07DX002 (ip), vehicle: distilled water + Tween-80, higher = larger tumour) was 97 % of control; the T/C (endpoint: median tumor weight (est.), dose: 50.0 mg/kg/injection, schedule: Q07DX002 (ip), vehicle: distilled water + Tween-80, higher = larger tumour) was 65 % of control; the T/C under setting [8] is 48 % of control.
`CNC(=O)OCc1c(COC(=O)NC)c(-c2ccccc2)n(C)c1-c1ccccc1`: the T/C under setting [8] is 62 % of control.
For `COc1cc(NCc2ccc3nc(N)nc(N)c3c2C)cc(OC)c1OC` (tested in a mixture with another compound), the T/C is 86 % of control under setting [7]; 100 % of control (endpoint: median tumor weight (est.), dose: 157.0 mg/kg/injection, schedule: Q07DX002 (ip), vehicle: water, higher = larger tumour); 75 % of control (endpoint: median tumor weight (est.), dose: 236.0 mg/kg/injection, schedule: Q07DX002 (ip), vehicle: water, higher = larger tumour).
Take `C[CH2][Sn]1([CH2]C)[O]OC(c2ccccc2)[O]1` (configuration not stated): the T/C is 121 % of control (endpoint: median tumor weight (est.), dose: 1.56 mg/kg/injection, schedule: Q07DX002 (ip), vehicle: saline with Tween-80, higher = larger tumour); 237 % of control under setting [3]; 195 % of control under setting [4]; 84 % of control (endpoint: median tumor weight (est.), dose: 25.0 mg/kg/injection, schedule: Q07DX002 (ip), vehicle: saline with Tween-80, higher = larger tumour).
Take `COc1ccc(C2C(=O)c3ccc(OC)cc3OC2c2ccccc2)cc1` (configuration not stated): the T/C was 84 % of control (endpoint: median tumor weight (est.), dose: 25.0 mg/kg/injection, schedule: Q07DX002 (ip), vehicle: other, higher = larger tumour); 56 % of control (endpoint: median tumor weight (est.), dose: 50.0 mg/kg/injection, schedule: Q07DX002 (ip), vehicle: other, higher = larger tumour); 47 % of control (endpoint: median tumor weight (est.), dose: 100.0 mg/kg/injection, schedule: Q07DX002 (ip), vehicle: other, higher = larger tumour); 50 % of control (endpoint: median tumor weight (est.), dose: 200.0 mg/kg/injection, schedule: Q07DX002 (ip), vehicle: other, higher = larger tumour); 61 % of control (endpoint: median tumor weight (est.), dose: 400.0 mg/kg/injection, schedule: Q07DX002 (ip), vehicle: other, higher = larger tumour).
